Measurements as given in patent US20250197343A1, “CATIONIC LIPID” (TAKEDA PHARMACEUTICAL COMPANY LIMITED, priority 2021, published 2025).

How the values were obtained:
[1] = Particle size of Luc DNA-encapsulated lipid nanoparticles; format: physicochemical; conditions: cationic lipid:DPPC:cholesterol:GM-020=60:10.6:28:1.4 molar ratio
Description: The particle size of the lipid particle (in the composition) can be measured by a known approach. For example, the particle size can be calculated as a Z-average particle size by the cumulant analysis of an autocorrelation function using a particle size measurement apparatus Zetasizer Nano ZS (Malvern Instruments) based on a dynamic light scattering measurement technique. The particle size (average particle size) of the lipid particle (in the composition) is, for example, 10 to 200 nm, preferably 60 to 170 nm.
(§1) A lipid mixture containing a cationic lipid of the Examples shown in Table 2 (cationic lipid:DPPC:cholesterol:GM-020=60:10.6:28:1.4, molar ratio) was dissolved in 90% of EtOH and 10% of water to obtain a 15.0 mg/ml lipid solution. Luciferase (luc) DNA (manufactured by Nature Technology Corp.) was dissolved in a 10 mM MES buffer solution (pH 5.5) to obtain a 0.3 mg/ml nucleic acid solution. The obtained lipid solution and nucleic acid solution were mixed at a flow rate ratio of 3 ml/min:6 ml/min at room temperature using NanoAssemblr (manufactured by Precision NanoSystems Inc.) to obtain a dispersion containing Luc DNA-encapsulated lipid nanoparticles. The obtained dispersion was dialyzed against water at room temperature for 1 hour and against PBS at 4° C. for 23 hours using Slyde-A-Lyzer (molecular weight cutoff: 20 K, Thermo Fischer Scientific Inc.). Subsequently, the dialysate was filtered through a 0.2 µm syringe filter (Iwaki). A 60% solution of sucrose in PBS was added thereto, and the mixture was preserved as a 20% solution of sucrose in PBS at −80° C. Analysis results of particle size and rate of encapsulation of the Luc DNA-encapsulated lipid nanoparticles are also shown in Table 2.

ICrl:CD1 (ICR) mice = test: Mouse bioluminescence imaging evaluation (Test Example 1); format: in vivo; conditions: Luc DNA-encapsulated lipid nanoparticles 10 mL/kg i.v. to ICR mice; IVIS total flux 15 minutes after luciferin i.p.
Method: The Luc DNA-encapsulated lipid nanopatricles obtained in the aforesaid Production Example were intravenously administered to the tails of ICrl:CD1 (ICR) mice (10 mL/kg i.v.). After administration of the lipid particles, luciferin (15 mg/mL) was administered to the mice (10 mL/kg i.p.), which were loaded in an IVIS (in vivo imaging system) apparatus (manufactured by PerkinElmer, Inc.) under isoflurane inhalation anesthesia. Luminescence images of the mice were taken ventrally (in a supine position) 15 minutes after luciferin administration. The luminescence was digitized with the software of IVIS, followed by evaluation using the value of total flux. Higher luminescence means strong expression of the protein encoded by the DNA encapsulate in the lipid particle. In Table 2, higher luminescence is indicated on a scale of A, B and C in order. A represents luminescence of 3.0E+07 or more, B represents luminescence of 1.0E+0.7 or more and less than 3.0E+07, and C represents luminescence of less than 1.0E+07.

[2] = Rate of encapsulation of Luc DNA in lipid nanoparticles; format: physicochemical; set-up: unit: %; conditions: Luc DNA-encapsulated lipid nanoparticles; cationic lipid:DPPC:cholesterol:GM-020=60:10.6:28:1.4 molar ratio
Description: The concentration and rate of encapsulation of the nucleic acid (e.g., siRNA or mRNA) in the composition of the present invention can be measured by a known approach. For example, the nucleic acid is fluorescently labeled using Quant-iT™ RiboGreen® (Invitrogen Corp.), and the fluorescence intensity can be measured to determine the concentration and the rate of encapsulation. The concentration of the nucleic acid in the composition can be calculated using a calibration curve prepared from aqueous nucleic acid solutions having known concentrations. The rate of encapsulation can be calculated on the basis of the difference in fluorescence intensity between the presence and absence of addition of Triton-X 100 (surfactant for disrupting the lipid particle). The concentration of the nucleic acid in the composition refers to the total concentration of a nucleic acid encapsulated in the lipid particle and an unencapsulated nucleic acid. The rate of encapsulation refers to the ratio of the nucleic acid encapsulated in the lipid particle to all nucleic acids in the composition.
as §1

Particle size (nm) [1] [nm] | Rate of encapsulation [2] | SMILES | Luminescence (ICrl:CD1 (ICR) mice)
128.7 | 73.5 | CCCCCC(CCCCC)CC(=O)OCC(COC(=O)CCCCCCCCCCC(=O)OC)(COC(=O)CCCCCCCCCCC(=O)OC)COC(=O)CCCN(C)C [Example 77, 1,1′-[2-({[4-(Dimethylamino)butanoyl]oxy}methyl)-2-{[(3-pentyloctanoyl)oxy]methyl}propane-1,3-diyl] 12,12′-dimethyl didodecanedioate] | B (B represents luminescence of 1.0E+0.7 or more and less than 3.0E+07)
89.5 | 95.9 | CCCCCCCOC(=O)CCCCC(=O)OCC(COC(=O)CCN(C)C)(COC(=O)CC(CCCCC)CCCCC)COC(=O)CC(CCCCC)CCCCC [Example 15, 2-{[(N,N-Dimethyl-beta-alanyl)oxy]methyl}-3-[(3-pentyloctanoyl)oxy]-2-{[(3-pentyloctanoyl)oxy]methyl}propyl heptyl hexanedioate] | C (C represents luminescence of less than 1.0E+07)
127.9 | 95.1 | CCCCCC(CCCCC)CC(=O)OCC(COC(=O)CCCCCCCC(=O)OC)(COC(=O)CCCN(C)C)COC(=O)CC(CCCCC)CCCCC [Example 36, 2-({[4-(Dimethylamino)butanoyl]oxy}methyl)-3-[(3-pentyloctanoyl)oxy]-2-{[(3-pentyloctanoyl)oxy]methyl}propyl methyl nonanedioate] | B (B represents luminescence of 1.0E+0.7 or more and less than 3.0E+07)
126.7 | 96.0 | CCCCCCCCOC(=O)CCCCC(=O)OCC(COC(=O)CCCCC(=O)OCCCCCCCC)(COC(=O)CCCN(C)C)COC(=O)CC(CCCCC)CCCCC [Example 43, 1,1′-[2-({[4-(Dimethylamino)butanoyl]oxy}methyl)-2-{[(3-pentyloctanoyl)oxy]methyl}propane-1,3-diyl] 6,6′-dioctyl dihexanedioate] | A (A represents luminescence of 3.0E+07 or more)
125.7 | 94.1 | CCCCCCCOC(=O)CCCCC(=O)OCC(COC(=O)CCCCC(=O)OCCCCCCC)(COC(=O)CCCN(C(C)C)C(C)C)COC(=O)CC(CCCCC)CCCCC [Example 92, 1,1′-(2-[({4-[di(Propan-2-yl)amino]butanoyl}oxy)methyl]-2-{[(3-pentyloctanoyl)oxy]methyl}propane-1,3-diyl] 6,6′-diheptyl dihexanedioate] | B (B represents luminescence of 1.0E+0.7 or more and less than 3.0E+07)
118.7 | 97.8 | CCCCCCCCCOC(=O)CCC(=O)OCC(COC(=O)CCCN(C)C)(COC(=O)CCC(=O)OCCCCCCCCC)COC(=O)CC(CCCCC)CCCCC [Example 97, 1,1′-[2-({[4-(Dimethylamino)butanoyl]oxy}methyl)-2-{[(3-pentyloctanoyl)oxy]methyl}propane-1,3-diyl] 4,4′-dinonyl dibutanedioate] | A (A represents luminescence of 3.0E+07 or more)
141.8 | 94.9 | CCCCCCCCCOC(=O)CCC(=O)OCC(COC(=O)CCCN(CC)C(C)C)(COC(=O)CCC(=O)OCCCCCCCCC)COC(=O)CC(CCCCC)CCCCC [Example 100] | B (B represents luminescence of 1.0E+0.7 or more and less than 3.0E+07)
104.2 | 97.2 | CCCCCC(CCCCC)CC(=O)OCC(COC(=O)CCCCC(=O)OCCCC)(COC(=O)CCCN(C)C)COC(=O)CC(CCCCC)CCCCC [Example 20, Butyl 2-({[4-(dimethylamino)butanoyl]oxy}methyl)-3-[(3-pentyloctanoyl)oxy]-2-{[(3-pentyloctanoyl)oxy]methyl}propyl hexanedioate] | B (B represents luminescence of 1.0E+0.7 or more and less than 3.0E+07)
131.4 | 96.2 | CCCCCC(CCCCC)CC(=O)OCC(COC(=O)CCCCC(=O)OCCCC)(COC(=O)CCCN(CC)CC)COC(=O)CC(CCCCC)CCCCC [Example 21, Butyl 2-({[4-(diethylamino)butanoyl]oxy}methyl)-3-[(3-pentyloctanoyl)oxy]-2-{[(3-pentyloctanoyl)oxy]methyl}propyl hexanedioate] | B (B represents luminescence of 1.0E+0.7 or more and less than 3.0E+07)
131.3 | 95.2 | CCCCCC(CCCCC)COC(=O)CCC(=O)OCC(COC(=O)CCCCN(C)C)(COC(=O)CCC(=O)OCC(CCCCC)CCCCC)COC(=O)CCC(=O)OCC(CCCCC)CCCCC [Example 38, 1,1′ {2-({[5-(Dimethylamino)pentanoyl]oxy}methyl)-2-[({4-oxo-4-[(2-pentylheptyl)oxy]butanoyl}oxy)methyl]propane-1,3-diyl} 4,4′-bis(2-pentylheptyl) dibutanedioate] | A (A represents luminescence of 3.0E+07 or more)
172.6 | 93.5 | CCCCCCCOC(=O)CCCCC(=O)OCC(COC(=O)CCCCC(=O)OCCCCCCC)(COC(=O)CCCN(C)C)COC(=O)CC(CCCC)CCCC [Example 84, 1,1′-[2-{[(3-Butylheptanoyl)oxy]methyl}-2-({[4-(dimethylamino)butanoyl]oxy}methyl)propane-1,3-diyl] 6,6′-diheptyl dihexanedioate] | B (B represents luminescence of 1.0E+0.7 or more and less than 3.0E+07)
139.8 | 91.8 | CCCCCCOC(=O)CCCCCC(=O)OCC(COC(=O)CCCCCC(=O)OCCCCCC)(COC(=O)CCCN(CC)C(C)C)COC(=O)CC(CCCCC)CCCCC [Example 102, 1,1′-(2-[({4-[Ethyl(propan-2-yl)amino]butanoyl}oxy)methyl]-2-{[(3-pentyloctanoyl)oxy]methyl}propane-1,3-diyl) 7,7′-dihexyl diheptanedioate] | B (B represents luminescence of 1.0E+0.7 or more and less than 3.0E+07)
186.2 | 79.7 | CCCCCOC(=O)CCCCCCCC(=O)OCC(COC(=O)CCCCCCCC(=O)OCCCCC)(COC(=O)CCCCCCCC(=O)OCCCCC)COC(=O)CCCN(C)C [Example 55, 1,1′-[2-({[4-(Dimethylamino)butanoyl]oxy}methyl)-2-({[9-oxo-9-(pentyloxy)nonanoyl]oxy}methyl)propane-1,3-diyl] 9,9′-dipentyl dinonanedioate] | C (C represents luminescence of less than 1.0E+07)
103.0 | 94.5 | CCCCCCCCCCC(C(=O)OC)C(=O)OCC(COC(=O)CCCN(C)C)(COC(=O)CC(CCCCC)CCCCC)COC(=O)C(CCCCCCCCCC)C(=O)OC (stereo not drawn) [Example 134, 1,1′-[2-({[4-(Dimethylamino)butanoyl]oxy}methyl)-2-{[(3-pentyloctanoyl)oxy]methyl}propane-1,3-diyl] 3,3′-dimethyl bis(decylpropanedioate)] | A (A represents luminescence of 3.0E+07 or more)
132.3 | 96.3 | CCCCCCCCCOC(=O)CCCCC(=O)OCC(COC(=O)CCCCC(=O)OCCCCCCCCC)(COC(=O)CCCN(C)C)COC(=O)CC(CCCCC)CCCCC [Example 44, 1,1′-[2-({[4-(Dimethylamino)butanoyl]oxy}methyl)-2-{[(3-pentyloctanoyl)oxy]methyl}propane-1,3-diyl] 6,6′-dinonyl dihexanedioate] | A (A represents luminescence of 3.0E+07 or more)
